Inconclusive results and toxic doses are left out.
Tested on: BDF1 mice, intracerebral L1210 leukemia, survival T/C
Assay: NCI In Vivo Anticancer Drug Screen. Data for tumor model L1210 Leukemia (intracerebral) in B6D2F1 (BDF1) mice
Conditions: higher = longer survival
Method in brief: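 Antitumour effect is judged in mice with transplanted tumour by comparing survival of treated (T) against vehicle-dosed (C) groups as T/C.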

**Q.** Which T/C (endpoint: mean survival time, dose: 10.0 mg/kg/injection, schedule: Q01DX001 (ip), vehicle: other) does the source give for `O=NN(CCF)C(=O)NC12CC3CC(CC(C3)C1)C2` here?
**A.** 103 % of control

**Q.** What about the T/C (endpoint: mean survival time, dose: 20.0 mg/kg/injection, schedule: Q01DX001 (ip), vehicle: other) of the same compound?
**A.** 101 % of control

**Q.** What about the T/C (endpoint: mean survival time, dose: 40.0 mg/kg/injection, schedule: Q01DX001 (ip), vehicle: other) of the same compound?
**A.** 110 % of control

**Q.** What about the T/C (endpoint: mean survival time, dose: 60.0 mg/kg/injection, schedule: Q01DX001 (ip), vehicle: other) of the same compound?
**A.** 120 % of control

**Q.** Which T/C (endpoint: mean survival time, dose: 133.0 mg/kg/injection, schedule: Q01DX001 (ip), vehicle: carboxymethylcellulose (CMC)) does the source give for `O=NN(CCBr)C(=O)NCCBr` here?
**A.** 112 % of control

**Q.** `N[C@H](C(=O)O)[C@@H]1CC(Cl)=NO1` was tested. Which T/C (endpoint: mean survival time, dose: 1.0 mg/kg/injection, schedule: Q01DX009 (ip), vehicle: saline) did it give?
**A.** 109 % of control

**Q.** What about the T/C (endpoint: mean survival time, dose: 2.0 mg/kg/injection, schedule: Q01DX009 (ip), vehicle: saline) of the same compound?
**A.** 114 % of control

**Q.** What about the T/C (endpoint: mean survival time, dose: 16.0 mg/kg/injection, schedule: Q01DX009 (ip), vehicle: saline) of the same compound?
**A.** 116 % of control

**Q.** And the T/C (endpoint: mean survival time, dose: 32.0 mg/kg/injection, schedule: Q01DX009 (ip), vehicle: saline)?
**A.** 100 % of control

**Q.** And the T/C (endpoint: median survival time, dose: 4.0 mg/kg/injection, schedule: Q01DX009 (ip), vehicle: saline)?
**A.** 120 % of control

**Q.** What about the T/C (endpoint: median survival time, dose: 8.0 mg/kg/injection, schedule: Q01DX009 (ip), vehicle: saline) of the same compound?
**A.** 124 % of control

**Q.** What about the T/C (endpoint: median survival time, dose: 32.0 mg/kg/injection, schedule: Q01DX009 (ip), vehicle: saline) of the same compound?
**A.** 100 % of control

**Q.** And the T/C (endpoint: median survival time, dose: 64.0 mg/kg/injection, schedule: Q01DX009 (ip), vehicle: saline)?
**A.** 100 % of control

**Q.** With `COc1cc(NS(C)(=O)=O)ccc1Nc1c2cccc(C)c2nc2c(C)cccc12` as the compound, how does the T/C (endpoint: mean survival time, dose: 6.25 mg/kg/injection, schedule: Q01DX009 (ip), vehicle: water) read?
**A.** 111 % of control

**Q.** What about the T/C (endpoint: mean survival time, dose: 6.25 mg/kg/injection, schedule: Q01DX009 (sc), vehicle: water) of the same compound?
**A.** 98 % of control

**Q.** What about the T/C (endpoint: mean survival time, dose: 12.5 mg/kg/injection, schedule: Q01DX009 (sc), vehicle: water) of the same compound?
**A.** 101 % of control

**Q.** What about the T/C (endpoint: mean survival time, dose: 25.0 mg/kg/injection, schedule: Q01DX001 (ip), vehicle: saline) of the same compound?
**A.** 101 % of control

**Q.** And the T/C (endpoint: mean survival time, dose: 25.0 mg/kg/injection, schedule: Q01DX009 (ip), vehicle: water)?
**A.** 114 % of control

**Q.** What about the T/C (endpoint: mean survival time, dose: 25.0 mg/kg/injection, schedule: Q01DX009 (sc), vehicle: water) of the same compound?
**A.** 103 % of control

**Q.** And the T/C (endpoint: mean survival time, dose: 50.0 mg/kg/injection, schedule: Q01DX001 (ip), vehicle: saline)?
**A.** 107 % of control

**Q.** What about the T/C (endpoint: mean survival time, dose: 50.0 mg/kg/injection, schedule: Q01DX009 (sc), vehicle: water) of the same compound?
**A.** 104 % of control

**Q.** What about the T/C (endpoint: mean survival time, dose: 100.0 mg/kg/injection, schedule: Q01DX001 (ip), vehicle: saline) of the same compound?
**A.** 110 % of control

**Q.** And the T/C (endpoint: mean survival time, dose: 200.0 mg/kg/injection, schedule: Q01DX001 (ip), vehicle: saline)?
**A.** 112 % of control

**Q.** How did the T/C (endpoint: mean survival time, dose: 125.0 mg/kg/injection, schedule: Q01DX001 (ip), vehicle: carboxymethylcellulose (CMC)) turn out when `O=NN(CCCl)C(=O)Nc1ccc2c(c1)CCCC2` was run?
**A.** 157 % of control

**Q.** What about the T/C (endpoint: mean survival time, dose: 178.0 mg/kg/injection, schedule: Q01DX001 (ip), vehicle: carboxymethylcellulose (CMC)) of the same compound?
**A.** 150 % of control

**Q.** What about the T/C (endpoint: mean survival time, dose: 187.0 mg/kg/injection, schedule: Q01DX001 (ip), vehicle: carboxymethylcellulose (CMC)) of the same compound?
**A.** 97 % of control

**Q.** What about the T/C (endpoint: mean survival time, dose: 238.0 mg/kg/injection, schedule: Q01DX001 (ip), vehicle: carboxymethylcellulose (CMC)) of the same compound?
**A.** 100 % of control

**Q.** With `O=C1C=CN(C2OC(CO)C(O)C2O)C(=O)C1` (stereo not given) as the compound, how does the T/C (endpoint: median survival time, dose: 200.0 mg/kg/injection, schedule: Q01DX009 (ip), vehicle: saline) read?
**A.** 150 % of control

**Q.** What does the source list for `CNC1=C(N2CC2)C(=O)C(NC)=C(N2CC2)C1=O`?
**A.** T/C (endpoint: mean survival time, dose: 0.05 mg/kg/injection, schedule: Q01DX009 (ip), vehicle: saline): 106 % of control; T/C (endpoint: mean survival time, dose: 0.1 mg/kg/injection, schedule: Q01DX009 (ip), vehicle: saline): 111 % of control; T/C (endpoint: mean survival time, dose: 0.2 mg/kg/injection, schedule: Q01DX009 (ip), vehicle: saline): 160 % of control; T/C (endpoint: mean survival time, dose: 0.3 mg/kg/injection, schedule: Q01DX009 (ip), vehicle: saline): 119 % of control; T/C (endpoint: mean survival time, dose: 0.4 mg/kg/injection, schedule: Q01DX009 (ip), vehicle: saline): 103 % of control; T/C (endpoint: mean survival time, dose: 0.6 mg/kg/injection, schedule: Q01DX009 (ip), vehicle: saline): 160 % of control

**Q.** `S=c1nc[nH]c2nc[nH]c12` was tested. Which T/C (endpoint: mean survival time, dose: 5.0 mg/kg/injection, schedule: Q01DX009 (ip), vehicle: alkali diluted with saline) did it give?
**A.** 122 % of control

**Q.** What about the T/C (endpoint: mean survival time, dose: 6.0 mg/kg/injection, schedule: Q01DX015 (ip), vehicle: alkali diluted with saline) of the same compound?
**A.** 114 % of control

**Q.** What about the T/C (endpoint: mean survival time, dose: 9.0 mg/kg/injection, schedule: Q01DX015 (ip), vehicle: alkali diluted with saline) of the same compound?
**A.** 120 % of control

**Q.** And the T/C (endpoint: mean survival time, dose: 14.0 mg/kg/injection, schedule: Q01DX015 (ip), vehicle: alkali diluted with saline)?
**A.** 120 % of control

**Q.** And the T/C (endpoint: mean survival time, dose: 60.0 mg/kg/injection, schedule: Q01DX001 (ip), vehicle: alkali diluted with saline)?
**A.** 111 % of control

**Q.** What about the T/C (endpoint: mean survival time, dose: 80.0 mg/kg/injection, schedule: Q01DX009 (ip), vehicle: alkali diluted with saline) of the same compound?
**A.** 181 % of control

**Q.** What about the T/C (endpoint: mean survival time, dose: 90.0 mg/kg/injection, schedule: Q01DX001 (ip), vehicle: alkali diluted with saline) of the same compound?
**A.** 117 % of control

**Q.** And the T/C (endpoint: mean survival time, dose: 135.0 mg/kg/injection, schedule: Q01DX001 (ip), vehicle: alkali diluted with saline)?
**A.** 115 % of control

**Q.** And the T/C (endpoint: median survival time, dose: 100.0 mg/kg/injection, schedule: Q01DX001 (oral), vehicle: saline with Tween-80)?
**A.** 115 % of control

**Q.** What about the T/C (endpoint: median survival time, dose: 200.0 mg/kg/injection, schedule: Q01DX001 (oral), vehicle: saline with Tween-80) of the same compound?
**A.** 113 % of control

**Q.** What about the T/C (endpoint: median survival time, dose: 400.0 mg/kg/injection, schedule: Q01DX001 (oral), vehicle: saline with Tween-80) of the same compound?
**A.** 118 % of control
